# Measurements published in ChEMBL document CHEMBL6087437 (J Med Chem, 2025).
# Activity calls are given as the source filed them. The rule behind the calls is not given here.
# Tests used:
# [1] = tested on: Ebolavirus; assay: Antiviral activity against pseudotyped Ebola virus expressing glycoprotein infected in human A549 cells assessed as inhibition of viral entry incubated for 48 hrs by Neolite reporter gene assay; assay type: functional, organism-based; conditions: Orthoebolavirus, A549, 48 h
# [2] = tested on: Marburgvirus; assay: Antiviral activity against pseudotyped Marburg virus expressing glycoprotein infected in human A549 cells assessed as inhibition of viral entry incubated for 48 hrs by Neolite reporter gene assay; assay type: functional, organism-based; conditions: Orthomarburgvirus, A549, 48 h
# [3] = Selectivity index, ratio of CC50 for human A549 cells to EC50 for pseudotyped Ebola virus expressing glycoprotein infected in human A549 cells; assay type: toxicity, cell-based; conditions: read-out: Ratio CC50/EC50
# [4] = tested on: Ebolavirus; assay: Binding affinity to Ebolavirus glycoprotein by SPR analysis
# [5] = tested on: Ebolavirus; assay: Antiviral activity against wildtype Ebola virus infected in human HeLa cells incubated for 40 hrs by Hoechst 33342 staining based Cytation-1 automated microscopic analysis; assay type: functional, organism-based; conditions: Orthoebolavirus
# [6] = tested on: HeLa; assay: Cytotoxicity against human HeLa cells by Celltiter-Glo luminescent cell viability assay; assay type: toxicity, cell-based
# [7] = Selectivity index, ratio of CC50 for human HeLa cells to EC50 for antiviral activity against wildtype Ebolavirus infected in human HeLa cells; assay type: toxicity, cell-based; conditions: read-out: Ratio CC50/EC50
# [8] = tested on: Zaire ebolavirus; assay: Antiviral activity against pseudotyped Zaire ebolavirus expressing glycoprotein infected in human A549 cells assessed as inhibition of viral entry incubated for 48 hrs by Neolite reporter gene assay; assay type: functional, organism-based; conditions: A549, 48 h
# [9] = tested on: Sudan ebolavirus; assay: Antiviral activity against pseudotyped Sudan ebolavirus expressing glycoprotein infected in human A549 cells assessed as inhibition of viral entry incubated for 48 hrs by Neolite reporter gene assay; assay type: functional, organism-based; conditions: A549, 48 h
# [10] = tested on: Bundibugyo virus; assay: Antiviral activity against pseudotyped Bundibugyo ebolavirus expressing glycoprotein infected in human A549 cells assessed as inhibition of viral entry incubated for 48 hrs by Neolite reporter gene assay; assay type: functional, organism-based; conditions: A549, 48 h
# [11] = tested on: Reston ebolavirus; assay: Antiviral activity against pseudotyped Reston ebolavirus expressing glycoprotein infected in human A549 cells assessed as inhibition of viral entry incubated for 48 hrs by Neolite reporter gene assay; assay type: functional, organism-based; conditions: A549, 48 h
# [12] = tested on: Tai Forest ebolavirus; assay: Antiviral activity against pseudotyped Tai Forest ebolavirus expressing glycoprotein infected in human A549 cells assessed as inhibition of viral entry incubated for 48 hrs by Neolite reporter gene assay; assay type: functional, organism-based; conditions: A549, 48 h
# [13] = tested on: Influenza A virus; assay: Antiviral activity against pseudotyped Influenza A virus A/Goose/Qinghai/59/05(H5N1) infected in human A549 cells assessed as inhibition of viral entry incubated for 48 hrs by Neolite reporter gene assay; assay type: functional, organism-based
# [14] = tested on: Vesicular stomatitis virus; assay: Antiviral activity against pseudotyped vesicular stomatitis virus expressing glycoprotein infected in human A549 cells assessed as inhibition of viral entry incubated for 48 hrs by Neolite reporter gene assay; assay type: functional, organism-based
# [15] = Metabolic stability in human liver microsomes assessed as parent compound remaining measured after 60 mins in presence of NADPH by LC-MS/MS analysis; assay type: ADME, Microsome; conditions: read-out: Stability
# [16] = Metabolic stability in BALB/c mouse liver microsomes assessed as parent compound remaining measured after 60 mins in presence of NADPH by LC-MS/MS analysis; assay type: ADME, Microsome; conditions: read-out: Stability
# [17] = Stability in human plasma assessed as parent compound remaining at 2 uM measured after 60 mins by LC-MS/MS analysis; assay type: ADME, cell-free; conditions: read-out: Stability
# [18] = Stability in mouse plasma assessed as parent compound remaining at 2 uM measured after 60 mins by LC-MS/MS analysis; assay type: ADME, cell-free; conditions: read-out: Stability
# [19] = target: T1, CYP1A2 (Homo sapiens, UniProt P05177); assay: Inhibition of CYP1A2 in human liver microsomes using phenacetin as substrate at 10 uM preincubated for 5 mins followed by substrate addition and measured after 20 mins by LC-MS analysis relative to control; assay type: ADME, Microsome; conditions: probe phenacetin, time 25 min
# T1 sequence (P05177 whole entry): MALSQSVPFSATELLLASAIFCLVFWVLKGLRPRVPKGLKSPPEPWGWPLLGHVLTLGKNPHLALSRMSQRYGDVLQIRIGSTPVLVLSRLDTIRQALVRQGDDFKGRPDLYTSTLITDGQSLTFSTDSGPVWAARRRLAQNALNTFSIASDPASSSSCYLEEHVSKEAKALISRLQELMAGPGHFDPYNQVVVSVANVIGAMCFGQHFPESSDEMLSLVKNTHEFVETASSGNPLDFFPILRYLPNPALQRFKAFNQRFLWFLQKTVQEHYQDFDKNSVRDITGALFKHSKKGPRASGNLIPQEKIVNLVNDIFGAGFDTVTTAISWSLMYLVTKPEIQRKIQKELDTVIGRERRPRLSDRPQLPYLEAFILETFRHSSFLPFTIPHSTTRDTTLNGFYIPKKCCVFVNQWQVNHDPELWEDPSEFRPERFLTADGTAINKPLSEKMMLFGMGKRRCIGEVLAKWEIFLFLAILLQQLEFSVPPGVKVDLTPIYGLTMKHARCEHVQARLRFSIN
# [20] = target: CYP2C9 (Homo sapiens, UniProt P11712); assay: Inhibition of CYP2C9 in human liver microsomes using tolbutamide as substrate at 10 uM preincubated for 5 mins followed by substrate addition and measured after 20 mins by LC-MS analysis relative to control; assay type: ADME, Microsome; conditions: probe tolbutamide, time 25 min
# Sequence of CYP2C9 (P11712 whole entry): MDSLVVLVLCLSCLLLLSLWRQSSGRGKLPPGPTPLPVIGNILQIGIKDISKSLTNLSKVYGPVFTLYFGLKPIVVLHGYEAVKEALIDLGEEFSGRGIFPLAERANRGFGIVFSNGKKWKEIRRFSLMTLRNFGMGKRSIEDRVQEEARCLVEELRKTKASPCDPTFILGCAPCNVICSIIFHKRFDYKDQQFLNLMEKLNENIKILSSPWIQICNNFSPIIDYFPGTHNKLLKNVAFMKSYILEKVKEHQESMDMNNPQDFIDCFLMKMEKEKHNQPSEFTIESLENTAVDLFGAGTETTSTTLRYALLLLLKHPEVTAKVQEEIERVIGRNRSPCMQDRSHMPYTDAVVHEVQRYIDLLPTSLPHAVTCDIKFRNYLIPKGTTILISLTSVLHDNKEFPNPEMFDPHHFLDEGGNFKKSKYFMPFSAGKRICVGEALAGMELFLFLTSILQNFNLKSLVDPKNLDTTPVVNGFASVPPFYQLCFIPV
# [21] = target: CYP2D6 (Homo sapiens, UniProt P10635); assay: Inhibition of CYP2D6 in human liver microsomes using dextromethorphan as substrate at 10 uM preincubated for 5 mins followed by substrate addition and measured after 20 mins by LC-MS analysis relative to control; assay type: ADME, Microsome; conditions: probe dextromethorphan, time 25 min
# Sequence of CYP2D6 (P10635 whole entry): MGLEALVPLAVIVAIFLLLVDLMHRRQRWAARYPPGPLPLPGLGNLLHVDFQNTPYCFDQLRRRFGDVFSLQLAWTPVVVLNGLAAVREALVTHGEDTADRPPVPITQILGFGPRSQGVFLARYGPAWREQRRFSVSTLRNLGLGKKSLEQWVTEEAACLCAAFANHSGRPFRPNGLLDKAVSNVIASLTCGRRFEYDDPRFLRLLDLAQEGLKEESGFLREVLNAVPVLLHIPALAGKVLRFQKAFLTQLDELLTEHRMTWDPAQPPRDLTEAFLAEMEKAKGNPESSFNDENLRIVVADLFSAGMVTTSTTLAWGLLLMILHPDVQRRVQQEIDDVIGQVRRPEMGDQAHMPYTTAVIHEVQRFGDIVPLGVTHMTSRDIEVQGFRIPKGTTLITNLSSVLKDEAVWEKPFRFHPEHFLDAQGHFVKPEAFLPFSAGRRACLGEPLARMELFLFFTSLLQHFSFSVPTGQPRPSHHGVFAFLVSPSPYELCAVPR
# [22] = target: Voltage-gated inwardly rectifying potassium channel KCNH2 (Homo sapiens, UniProt Q12809); assay: Inhibition of human ERG; assay type: toxicity
# Sequence of Voltage-gated inwardly rectifying potassium channel KCNH2 (Q12809 whole entry): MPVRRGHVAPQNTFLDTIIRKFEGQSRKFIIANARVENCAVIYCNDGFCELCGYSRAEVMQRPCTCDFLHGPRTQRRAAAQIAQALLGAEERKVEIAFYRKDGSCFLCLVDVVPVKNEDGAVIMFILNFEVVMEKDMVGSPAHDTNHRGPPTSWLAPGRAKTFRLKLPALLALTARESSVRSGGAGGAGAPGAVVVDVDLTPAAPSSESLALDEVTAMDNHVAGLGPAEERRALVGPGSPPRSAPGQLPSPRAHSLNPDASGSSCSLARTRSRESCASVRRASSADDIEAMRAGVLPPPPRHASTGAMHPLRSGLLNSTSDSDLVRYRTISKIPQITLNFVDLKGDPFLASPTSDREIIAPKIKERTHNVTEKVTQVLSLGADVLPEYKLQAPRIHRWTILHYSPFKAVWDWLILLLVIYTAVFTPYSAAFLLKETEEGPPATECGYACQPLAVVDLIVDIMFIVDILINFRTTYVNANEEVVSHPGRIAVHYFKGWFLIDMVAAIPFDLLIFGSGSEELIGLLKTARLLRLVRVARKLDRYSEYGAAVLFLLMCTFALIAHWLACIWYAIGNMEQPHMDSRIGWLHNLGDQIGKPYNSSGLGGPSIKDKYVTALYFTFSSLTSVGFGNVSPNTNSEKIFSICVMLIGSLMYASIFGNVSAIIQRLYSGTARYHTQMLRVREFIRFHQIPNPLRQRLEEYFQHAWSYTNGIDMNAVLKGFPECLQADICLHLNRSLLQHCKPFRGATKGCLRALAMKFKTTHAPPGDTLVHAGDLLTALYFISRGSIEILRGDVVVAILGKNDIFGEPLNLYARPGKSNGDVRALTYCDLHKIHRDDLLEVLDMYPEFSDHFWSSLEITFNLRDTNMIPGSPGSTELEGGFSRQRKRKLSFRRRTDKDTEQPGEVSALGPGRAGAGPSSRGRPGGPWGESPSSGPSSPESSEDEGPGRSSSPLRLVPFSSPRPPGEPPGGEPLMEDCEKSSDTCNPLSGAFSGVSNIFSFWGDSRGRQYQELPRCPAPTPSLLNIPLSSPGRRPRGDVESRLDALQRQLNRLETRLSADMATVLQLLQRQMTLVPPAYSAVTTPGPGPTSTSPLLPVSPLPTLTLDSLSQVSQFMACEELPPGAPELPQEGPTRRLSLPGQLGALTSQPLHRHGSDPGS
# [23] = Half-life in female C57BL/6J mouse at 25 mg/kg, ip; assay type: ADME, organism-based; conditions: in vivo
# [24] = Tmax in female C57BL/6J mouse at 25 mg/kg, ip; assay type: ADME, organism-based; conditions: in vivo
# [25] = Cmax in female C57BL/6J mouse at 25 mg/kg, ip; assay type: ADME, organism-based; conditions: in vivo
# [26] = AUC in female C57BL/6J mouse at 25 mg/kg, ip; assay type: ADME, organism-based; conditions: in vivo
# [27] = Clearance in female C57BL/6J mouse at 25 mg/kg, ip; assay type: ADME, organism-based; conditions: in vivo
# [28] = Half-life in female C57BL/6J mouse at 50 mg/kg, ip; assay type: ADME, organism-based; conditions: in vivo
# [29] = Tmax in female C57BL/6J mouse at 50 mg/kg, ip; assay type: ADME, organism-based; conditions: in vivo
# [30] = Cmax in female C57BL/6J mouse at 50 mg/kg, ip; assay type: ADME, organism-based; conditions: in vivo
# [31] = AUC in female C57BL/6J mouse at 50 mg/kg, ip; assay type: ADME, organism-based; conditions: in vivo
# [32] = Clearance in female C57BL/6J mouse at 50 mg/kg, ip; assay type: ADME, organism-based; conditions: in vivo
# [33] = tested on: A549; assay: Induction of phospholipidosis in human A549 cells at 10 uM incubated for 48 hrs by Hoechst 33342 staining based fluorescence imaging analysis; assay type: functional, cell-based
SMILES,EC50 [1] [nM],EC50 [2] [nM],selectivity ratio [3],Activity [4],EC50 [5] [nM],CC50 [6] [nM],selectivity ratio [7],EC50 [8] [nM],EC50 [9] [nM],EC50 [10] [nM],EC50 [11] [nM],EC50 [12] [nM],inhibition [13],inhibition [14],further results
O=C(Nc1ccc(C23CC4CC(CC(C4)C2)C3)cc1)c1ccc(CN2C[C@@H]3C[C@H]2CO3)nc1,230,2800,258,Active,–,–,–,–,–,–,–,–,–,–,–
O=C(Nc1ccc(CN2CCOCC2)cc1)Nc1ccc(C23CC4CC(CC(C4)C2)C3)cc1,370,2580,32,–,700,16600,24,–,–,–,–,–,–,–,–
O=C(Nc1ccc(N2CCC3(CCC3)CC2)c(C(F)(F)F)c1)c1ccc(CN2C[C@H]3C[C@@H]2CO3)nc1,210,880,–,–,520,13400,–,210,420,960,400,170,Weak_effect,Weak_effect,–
O=C(Nc1ccc(N2CCC3(CCC3)CC2)c(C(F)(F)F)c1)c1ccc(C(=O)N2C[C@H]3C[C@@H]2CO3)nc1,230,3890,201,–,890,43400,49,230,1610,1190,260,130,Weak_effect,Weak_effect,–
O=C(Nc1ccc(N2CCC3(CCC3)CC2)c(C(F)(F)F)c1)c1ccc(C(=O)N2C[C@@H]3C[C@H]2CO3)nc1,160,2240,258,–,730,47700,65,160,890,210,210,110,Weak_effect,Weak_effect,"remaining at 1 h [15]: 83.6%; remaining at 1 h [16]: 84%; remaining at 1 h, 2 µM [17]: ~100%; remaining at 1 h, 2 µM [18]: 97%; inhibition at 20 min, 10 µM [19]: 13.5%; inhibition at 20 min, 10 µM [20]: 56.6%; inhibition at 20 min, 10 µM [21]: 24.9%; IC50 [22]: 9400 nM; half-life [23]: 1.4 h; Tmax [24]: 1.7 h; Cmax [25]: 5370 ng/mL; AUC [26]: 20700 ng·h/mL; CL/F [27]: 20.2 mL/min/kg; half-life [28]: 1.9 h; Tmax [29]: 0.7 h; Cmax [30]: 14600 ng/mL; AUC [31]: 57800 ng·h/mL; CL/F [32]: 14.4 mL/min/kg; Activity [33]: inactive"
CC1CCN(c2ccc(NC(=O)c3ccc(CN4C[C@@H]5C[C@H]4CO5)nc3)cc2C(F)(F)F)CC1,310,3430,149,Active,–,–,–,–,–,–,–,–,–,–,–
CC1CCN(c2ccc(NC(=O)c3ccc(CN4CCOCC4)cc3)cc2C(F)(F)F)CC1,220,5280,129,Active,540,42700,77,220,1280,3670,740,170,–,–,–
O=C(Nc1ccc(C23CC4CC(CC(C4)C2)C3)cc1)c1ccc(CN2C[C@@H]3C[C@H]2CO3)cc1,200,1330,77,Active,610,10300,17,–,–,–,–,–,–,–,–
